Each structure is given as a SMILES string. Calls of active or inactive are those of the source.

Experimental findings from ChEMBL document CHEMBL1201862, “PubChem BioAssay data set” (2004) are described below.

Test [1] in a line: Dd2 malaria parasite growth inhibition potency – SYBR Green, dry powder samples, dose response (AID 1159566).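 Further: potency for growth inhibition with lower SYBR green DNA signal.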 The test is classed as functional, cell-based.
The nature of test [2]: P. falciparum Dd2 growth inhibitors, dose response, SYBR Green, cherry-picked samples (AID 1159567). The test is classed as functional, cell-based.
The nature of test [3]: growth inhibition of PfATP4-mutant resistant parasites – NITD609-resistant line, SYBR Green, dry powder, dose response (AID 1159571).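 Further: parasites synchronized at ring stage by sorbitol before testing.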 It counts as functional, cell-based.
A short description of test [4]: growth inhibition of yeast DHODH-expressing 3D7 parasites – SYBR Green, dry powder samples, dose response (AID 1159570).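 Further: parasite growth measured after 72 hours of compound exposure.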 It counts as functional, cell-based.
A short description of test [5]: toxicity to human HepG2 hepatoma cells – cell-based, plate reader, dry powder samples, cytotoxicity control, dose response (AID 1159569).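 Further: inhibitor potency with signal falling toward the positive control level.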 The test is classed as functional.
The nature of test [6]: Counterscreen for activators of the function of SWI/SNF related, matrix associated, actin dependent regulator of chromatin, subfamily a, member 2 (SMARCA2, BRM): Luminescence-based cell-based high throughput dose response assay to identify non-selective compounds using the VP16 reporter assay. It counts as functional.
Test [7] concerns the target SWI/SNF-related matrix-associated actin-dependent regulator of chromatin subfamily A member 2 (Homo sapiens, UniProt P51531). Put plainly: Luminescence-based cell-based high throughput dose response assay to identify activators of the function of SWI/SNF related, matrix associated, actin dependent regulator of chromatin, subfamily a, member 2 (SMARCA2, BRM). It counts as functional.

In test [8] the target is Paired box protein Pax-8 (Homo sapiens, UniProt Q06710). As to the kind of experiment: PAX8 transcriptional activity inhibition in RMG-I – RMG-I cells, luciferase, cherry-pick, dose response (AID 687027).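 Further: luciferase reporter driven by Pax8 target thyroperoxidase promoter measured by SteadyGlo luminescence.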 It counts as functional, cell-based.
The nature of test [9]: OVCAR8 cell viability loss – plate reader, dry powder samples, PAX8 project, dose response (AID 743197). To be noted: OVCAR-8. The test is classed as functional, cell-based.
Test [10] is described as follows: luciferase reporter signal suppression in cells – H4 neuroglioma cells, luminescence, dose response (AID 1990). It counts as functional, cell-based.
The target in test [11] is Photoreceptor-specific nuclear receptor (Homo sapiens, UniProt Q9Y5X4). Put plainly: ligands suppressing NR2E3 nuclear receptor activity – biochemical, TR-FRET, dose response (AID 463256). The test is classed as functional.
Photoreceptor-specific nuclear receptor, sequence (Q9Y5X4 whole entry): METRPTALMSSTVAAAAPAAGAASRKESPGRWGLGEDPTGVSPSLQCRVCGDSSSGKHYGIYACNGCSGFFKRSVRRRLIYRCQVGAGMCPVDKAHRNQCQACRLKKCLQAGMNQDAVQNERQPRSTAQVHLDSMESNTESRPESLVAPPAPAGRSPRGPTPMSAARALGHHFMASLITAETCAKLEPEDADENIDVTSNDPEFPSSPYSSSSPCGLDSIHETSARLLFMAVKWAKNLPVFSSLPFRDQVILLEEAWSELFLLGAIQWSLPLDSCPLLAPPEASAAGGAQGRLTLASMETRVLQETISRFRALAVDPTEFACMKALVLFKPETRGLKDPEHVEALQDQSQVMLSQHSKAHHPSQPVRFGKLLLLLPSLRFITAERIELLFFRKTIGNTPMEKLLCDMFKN
Test [12] is described as follows: alpha-synuclein stem-loop luciferase translation blockers – H4 neuroglioma cells, luminescence, confirmation (AID 1988). The test is classed as functional, cell-based.
Test [13] addresses Peroxisome proliferator-activated receptor gamma/Nuclear receptor corepressor 2 (Homo sapiens, UniProt P37231+Q9Y618). As to the kind of experiment: Counterscreen for NR2E3 inverse agonists: TR-FRET-based biochemical high throughput dose response assay to identify inverse agonists of the interaction between peroxisome proliferator-activated receptor gamma (PPARg) and nuclear receptor co-repressor 2 (NCOR2). The test is classed as functional.

A short description of test [14]: Luminescence Cell-Based Dose Response HTS to Identify Inhibitors of 5'UTR Stem-Loop Driven Prion Protein mRNA Translation in H4 Neuroglioblastoma Cells. [Related pubchem assays: 1827 (Project Summary), 1813 (Primary HTS)]. It counts as functional.
The nature of test [15]: OVCAR-3 cell viability loss – plate reader, dry powder samples, PAX8 inhibitor project, dose response (AID 743044). The test is classed as functional, cell-based.
Test [16] addresses T1, Replicative DNA helicase DnaB (Mycobacterium tuberculosis, UniProt P9WMR3).
T1 sequence (P9WMR3 whole entry): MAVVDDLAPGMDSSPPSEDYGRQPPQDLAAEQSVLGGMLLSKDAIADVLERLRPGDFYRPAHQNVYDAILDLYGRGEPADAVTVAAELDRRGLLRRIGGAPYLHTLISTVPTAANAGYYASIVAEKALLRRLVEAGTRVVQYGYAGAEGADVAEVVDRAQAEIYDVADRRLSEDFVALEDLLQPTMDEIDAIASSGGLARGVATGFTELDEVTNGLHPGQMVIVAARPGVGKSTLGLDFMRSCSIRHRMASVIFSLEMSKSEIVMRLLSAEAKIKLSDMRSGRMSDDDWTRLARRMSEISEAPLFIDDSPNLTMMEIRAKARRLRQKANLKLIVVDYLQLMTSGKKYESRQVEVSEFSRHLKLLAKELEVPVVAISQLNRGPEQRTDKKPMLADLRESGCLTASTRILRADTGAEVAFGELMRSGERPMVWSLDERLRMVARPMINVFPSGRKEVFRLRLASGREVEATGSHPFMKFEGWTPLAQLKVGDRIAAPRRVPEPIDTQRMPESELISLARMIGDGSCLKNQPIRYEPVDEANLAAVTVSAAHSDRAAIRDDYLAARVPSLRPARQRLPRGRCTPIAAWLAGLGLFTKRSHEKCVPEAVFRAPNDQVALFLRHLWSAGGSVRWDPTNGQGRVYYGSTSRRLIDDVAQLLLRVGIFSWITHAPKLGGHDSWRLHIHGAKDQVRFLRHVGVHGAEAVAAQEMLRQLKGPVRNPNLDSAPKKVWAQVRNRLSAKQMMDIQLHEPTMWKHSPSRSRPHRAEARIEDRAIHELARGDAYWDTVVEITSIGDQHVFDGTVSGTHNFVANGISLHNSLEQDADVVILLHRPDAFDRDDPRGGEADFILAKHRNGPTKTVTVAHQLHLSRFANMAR
As to the kind of experiment: DnaB intein splicing inhibitors, dose response, biochemical, cell-free fluorescence (AID 449749). The test is classed as functional.

Test [17] addresses T2, Protein RecA (Mycobacterium tuberculosis, UniProt P9WHJ3).
T2 sequence (P9WHJ3 whole entry): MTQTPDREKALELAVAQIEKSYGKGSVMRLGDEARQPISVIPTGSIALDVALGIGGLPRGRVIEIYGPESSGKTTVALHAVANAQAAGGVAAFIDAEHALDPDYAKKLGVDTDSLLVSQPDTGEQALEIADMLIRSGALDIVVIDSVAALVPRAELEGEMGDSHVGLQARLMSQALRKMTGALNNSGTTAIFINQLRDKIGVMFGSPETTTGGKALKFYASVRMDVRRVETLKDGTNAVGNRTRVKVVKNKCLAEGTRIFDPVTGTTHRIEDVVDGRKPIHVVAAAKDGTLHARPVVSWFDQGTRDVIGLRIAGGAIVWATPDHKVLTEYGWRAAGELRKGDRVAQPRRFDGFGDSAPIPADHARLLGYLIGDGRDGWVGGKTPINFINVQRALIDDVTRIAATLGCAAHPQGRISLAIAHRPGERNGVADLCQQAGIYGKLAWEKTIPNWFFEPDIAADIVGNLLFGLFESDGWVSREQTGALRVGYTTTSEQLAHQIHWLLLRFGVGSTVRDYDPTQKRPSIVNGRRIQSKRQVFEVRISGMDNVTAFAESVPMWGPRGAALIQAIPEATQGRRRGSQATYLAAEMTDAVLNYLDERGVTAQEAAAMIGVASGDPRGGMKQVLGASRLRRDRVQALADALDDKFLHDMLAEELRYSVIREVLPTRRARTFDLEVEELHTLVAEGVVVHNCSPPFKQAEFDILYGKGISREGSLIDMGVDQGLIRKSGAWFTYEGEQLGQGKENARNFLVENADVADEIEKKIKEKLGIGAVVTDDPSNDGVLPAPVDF
As to the kind of experiment: Fluorescence Cell-Free Homogeneous Dose Retest to Identify Inhibitors of RecA-Intein Splicing Activity. [Related pubchem assays (depositor defined):AID2097, AID2223, AID489010, AID492950]. The test is classed as functional.

Test [18] addresses Mu-type opioid receptor (Homo sapiens, UniProt P35372). It counts as functional, cell-based.
Test [19] concerns the target 5-hydroxytryptamine receptor 2A (Mus musculus, UniProt P35363). The test is classed as functional, cell-based.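 Further: CHO-K1 cells with tagged receptor and beta-arrestin; agonist potency measured as compound-induced activation of the receptor.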

Peroxisome proliferator-activated receptor gamma/Nuclear receptor corepressor 2, sequence (P37231 whole entry): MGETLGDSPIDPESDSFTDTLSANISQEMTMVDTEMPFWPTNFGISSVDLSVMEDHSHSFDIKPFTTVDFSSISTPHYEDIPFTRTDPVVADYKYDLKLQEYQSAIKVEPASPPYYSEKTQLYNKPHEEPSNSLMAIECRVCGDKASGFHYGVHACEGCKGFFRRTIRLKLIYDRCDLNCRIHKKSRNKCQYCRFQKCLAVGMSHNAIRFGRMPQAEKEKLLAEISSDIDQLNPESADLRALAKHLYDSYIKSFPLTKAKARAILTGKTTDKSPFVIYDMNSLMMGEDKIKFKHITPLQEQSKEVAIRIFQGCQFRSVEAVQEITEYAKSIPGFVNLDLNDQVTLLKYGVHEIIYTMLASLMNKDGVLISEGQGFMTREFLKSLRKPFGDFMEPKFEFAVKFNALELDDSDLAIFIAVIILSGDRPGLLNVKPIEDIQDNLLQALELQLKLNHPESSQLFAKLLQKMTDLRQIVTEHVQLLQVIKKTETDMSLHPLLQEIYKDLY
Peroxisome proliferator-activated receptor gamma/Nuclear receptor corepressor 2, sequence (Q9Y618 whole entry): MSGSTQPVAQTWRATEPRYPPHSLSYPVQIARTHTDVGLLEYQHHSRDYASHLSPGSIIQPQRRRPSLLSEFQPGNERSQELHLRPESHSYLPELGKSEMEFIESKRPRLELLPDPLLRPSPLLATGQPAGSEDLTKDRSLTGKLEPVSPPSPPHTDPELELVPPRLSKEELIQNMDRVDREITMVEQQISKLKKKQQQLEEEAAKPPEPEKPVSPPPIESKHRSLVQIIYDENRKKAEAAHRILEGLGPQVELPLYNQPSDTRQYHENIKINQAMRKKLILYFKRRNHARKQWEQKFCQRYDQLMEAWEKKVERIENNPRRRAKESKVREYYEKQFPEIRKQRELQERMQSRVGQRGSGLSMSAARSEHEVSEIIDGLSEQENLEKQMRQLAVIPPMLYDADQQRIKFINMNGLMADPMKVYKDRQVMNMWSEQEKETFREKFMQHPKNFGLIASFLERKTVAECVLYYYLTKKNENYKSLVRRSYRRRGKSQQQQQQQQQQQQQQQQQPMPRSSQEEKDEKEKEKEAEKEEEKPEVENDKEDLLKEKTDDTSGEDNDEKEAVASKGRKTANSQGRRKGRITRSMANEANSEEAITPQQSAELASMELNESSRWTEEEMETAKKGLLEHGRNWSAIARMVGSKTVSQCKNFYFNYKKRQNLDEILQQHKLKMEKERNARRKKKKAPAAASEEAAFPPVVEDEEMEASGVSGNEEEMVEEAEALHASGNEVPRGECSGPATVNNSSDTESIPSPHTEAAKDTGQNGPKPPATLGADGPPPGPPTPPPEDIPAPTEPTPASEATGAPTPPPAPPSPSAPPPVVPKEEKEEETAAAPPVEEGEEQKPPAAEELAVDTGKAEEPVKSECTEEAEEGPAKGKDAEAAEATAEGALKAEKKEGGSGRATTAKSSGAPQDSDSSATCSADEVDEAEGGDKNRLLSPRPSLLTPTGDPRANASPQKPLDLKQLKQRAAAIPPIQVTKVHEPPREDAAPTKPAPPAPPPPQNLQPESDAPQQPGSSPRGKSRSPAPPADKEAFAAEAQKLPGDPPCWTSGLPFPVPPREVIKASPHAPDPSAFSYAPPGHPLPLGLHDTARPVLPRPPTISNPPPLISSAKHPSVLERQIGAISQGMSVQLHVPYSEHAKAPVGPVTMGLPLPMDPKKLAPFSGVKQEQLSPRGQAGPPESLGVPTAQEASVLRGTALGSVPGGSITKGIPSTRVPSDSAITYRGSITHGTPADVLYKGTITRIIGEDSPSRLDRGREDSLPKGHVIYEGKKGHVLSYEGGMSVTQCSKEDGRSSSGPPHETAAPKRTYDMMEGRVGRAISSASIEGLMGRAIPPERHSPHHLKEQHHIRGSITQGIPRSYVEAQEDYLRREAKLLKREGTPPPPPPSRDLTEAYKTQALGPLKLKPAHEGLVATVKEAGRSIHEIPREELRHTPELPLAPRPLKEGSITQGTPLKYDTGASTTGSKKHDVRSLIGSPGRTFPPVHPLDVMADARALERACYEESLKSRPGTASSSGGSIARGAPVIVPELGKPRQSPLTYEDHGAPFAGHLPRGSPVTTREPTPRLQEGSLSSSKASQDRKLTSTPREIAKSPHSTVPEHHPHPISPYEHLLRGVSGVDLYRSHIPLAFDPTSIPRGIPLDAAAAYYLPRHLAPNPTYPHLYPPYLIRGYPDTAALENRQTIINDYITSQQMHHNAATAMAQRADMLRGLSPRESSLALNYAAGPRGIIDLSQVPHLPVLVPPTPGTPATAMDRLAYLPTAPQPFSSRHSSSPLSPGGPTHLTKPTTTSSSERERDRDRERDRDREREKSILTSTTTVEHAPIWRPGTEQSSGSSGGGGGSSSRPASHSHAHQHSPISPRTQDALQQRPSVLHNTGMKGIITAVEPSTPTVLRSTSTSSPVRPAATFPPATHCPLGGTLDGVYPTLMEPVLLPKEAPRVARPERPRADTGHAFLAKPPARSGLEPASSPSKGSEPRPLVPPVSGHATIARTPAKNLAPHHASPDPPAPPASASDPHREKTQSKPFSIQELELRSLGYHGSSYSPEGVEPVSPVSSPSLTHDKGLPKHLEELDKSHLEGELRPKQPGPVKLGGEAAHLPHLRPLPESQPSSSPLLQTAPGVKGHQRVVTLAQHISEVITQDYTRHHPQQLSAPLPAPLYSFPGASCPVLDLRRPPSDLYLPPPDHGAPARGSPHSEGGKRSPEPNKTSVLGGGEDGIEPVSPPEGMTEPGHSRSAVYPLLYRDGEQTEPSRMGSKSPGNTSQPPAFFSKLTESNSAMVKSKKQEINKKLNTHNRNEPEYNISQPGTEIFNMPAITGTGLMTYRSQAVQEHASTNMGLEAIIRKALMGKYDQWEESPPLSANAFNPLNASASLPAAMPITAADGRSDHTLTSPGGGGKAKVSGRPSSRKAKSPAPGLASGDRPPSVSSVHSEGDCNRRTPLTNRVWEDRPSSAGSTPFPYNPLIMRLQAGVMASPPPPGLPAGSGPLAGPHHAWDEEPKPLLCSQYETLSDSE
SWI/SNF-related matrix-associated actin-dependent regulator of chromatin subfamily A member 2, sequence (P51531 whole entry): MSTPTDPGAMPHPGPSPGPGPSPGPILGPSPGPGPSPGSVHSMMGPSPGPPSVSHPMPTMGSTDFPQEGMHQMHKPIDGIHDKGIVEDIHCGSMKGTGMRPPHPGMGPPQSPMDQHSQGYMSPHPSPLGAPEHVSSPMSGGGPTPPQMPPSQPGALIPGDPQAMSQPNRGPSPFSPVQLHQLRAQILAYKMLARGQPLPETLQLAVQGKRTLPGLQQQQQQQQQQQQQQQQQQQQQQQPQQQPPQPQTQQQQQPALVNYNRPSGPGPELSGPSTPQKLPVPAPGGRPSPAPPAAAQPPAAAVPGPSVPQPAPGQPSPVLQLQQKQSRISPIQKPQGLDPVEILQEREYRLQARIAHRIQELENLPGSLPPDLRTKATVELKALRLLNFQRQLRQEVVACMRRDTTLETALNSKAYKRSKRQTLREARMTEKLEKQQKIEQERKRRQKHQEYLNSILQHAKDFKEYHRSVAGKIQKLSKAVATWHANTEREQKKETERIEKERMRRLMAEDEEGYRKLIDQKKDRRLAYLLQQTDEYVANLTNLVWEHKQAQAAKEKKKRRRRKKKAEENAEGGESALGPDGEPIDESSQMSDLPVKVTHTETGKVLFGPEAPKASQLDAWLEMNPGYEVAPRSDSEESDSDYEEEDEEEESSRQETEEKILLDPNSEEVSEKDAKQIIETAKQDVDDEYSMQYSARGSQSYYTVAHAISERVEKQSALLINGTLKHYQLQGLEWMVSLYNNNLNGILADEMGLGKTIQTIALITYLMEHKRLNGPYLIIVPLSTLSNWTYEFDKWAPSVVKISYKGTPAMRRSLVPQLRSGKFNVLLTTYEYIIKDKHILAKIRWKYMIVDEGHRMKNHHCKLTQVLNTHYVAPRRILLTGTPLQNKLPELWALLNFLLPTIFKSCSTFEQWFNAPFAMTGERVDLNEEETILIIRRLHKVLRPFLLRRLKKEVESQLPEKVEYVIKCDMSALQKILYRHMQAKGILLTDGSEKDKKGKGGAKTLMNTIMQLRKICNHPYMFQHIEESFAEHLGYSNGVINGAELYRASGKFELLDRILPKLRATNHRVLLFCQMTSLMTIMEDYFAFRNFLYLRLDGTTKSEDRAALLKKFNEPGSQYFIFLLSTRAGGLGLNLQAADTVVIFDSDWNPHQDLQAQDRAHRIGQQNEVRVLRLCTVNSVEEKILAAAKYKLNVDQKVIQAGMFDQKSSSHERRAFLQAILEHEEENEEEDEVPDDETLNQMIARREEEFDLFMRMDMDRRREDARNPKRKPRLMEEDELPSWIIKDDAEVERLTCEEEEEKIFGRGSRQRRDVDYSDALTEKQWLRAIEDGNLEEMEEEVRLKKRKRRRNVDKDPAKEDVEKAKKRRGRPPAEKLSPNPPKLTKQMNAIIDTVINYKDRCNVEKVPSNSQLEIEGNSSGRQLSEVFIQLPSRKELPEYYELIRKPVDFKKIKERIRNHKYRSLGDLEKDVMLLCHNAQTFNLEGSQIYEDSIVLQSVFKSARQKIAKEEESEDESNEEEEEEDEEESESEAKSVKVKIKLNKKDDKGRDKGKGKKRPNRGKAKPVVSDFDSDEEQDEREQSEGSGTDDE

With `COc1ccc(S(=O)(=O)N(C)C[C@H]2Oc3c(NC(=O)Nc4cccc5ccccc45)cccc3C(=O)N([C@@H](C)CO)C[C@H]2C)cc1`, the AC50 in test [1] is 0.327 µM (active); in [2], 0.489 µM (active); in test [3] it was 0.277 µM (active); in test [4], 0.3 µM (active); in test [5] it was > 100 µM (inactive).
Regarding `Cc1ccsc1C(=O)OCC(=O)NCCC1=CCCCC1`, the EC50 in [6] and in test [7] was > 91.1 µM (inactive) throughout.
On to `Cc1ccc(S(=O)(=O)N(C)C[C@H]2OCCCC[C@H](C)Oc3ccc(NS(=O)(=O)c4ccc(Cl)cc4)cc3C(=O)N([C@@H](C)CO)C[C@@H]2C)cc1`, for which the AC50 in test [8] is 6.7 µM (active); in test [9], > 70 µM (inactive).
Take `Cc1ccc2nc(-c3cc(-c4ccccc4)no3)cn2c1`: the concentration giving a half-maximal response (EC50) in test [10] is 7.48 µM (inconclusive); in test [12], 3.08 µM (active); in [14] it was 3.61 µM (active). The concentration for half-maximal inhibition (IC50) in test [11] and in test [13] was > 39.8 µM (not active) throughout.
`COc1ccc2c3c([nH]c2c1)[C@@H](CO)N(Cc1cccc(F)c1)CC31CCN(Cc2ccccn2)CC1`: the AC50 was 1.52 µM (active) in [1]; 1.21 µM (active) in [2]; 1.1 µM (active) in test [3]; 1.32 µM (active) in test [4]; 48.6 µM (active) in [5].
Turning to `Nc1nc(CN2CCN(Cc3ccccc3)CC2)nc(Nc2ccc3c(c2)OCCO3)n1`, the EC50 in test [6] and in test [7] was > 91.2 µM (inactive) in each case.
Regarding `C[C@@H]1CCCCO[C@H](CN(C)Cc2ccc(C(F)(F)F)cc2)[C@H](C)CN([C@@H](C)CO)C(=O)c2cc(NS(=O)(=O)c3ccc(Cl)cc3)ccc2O1`, the results for the AC50 in [15], in [8] and in test [9] were 16.4 µM (active), 5.9 µM (active) and > 70 µM (inactive), respectively.
Consider `CCn1cnc2sc(C(=O)Nc3ccccc3OC)c(C)c2c1=O`, for which the concentration for half-maximal inhibition (IC50) in test [11] was 7.11 µM (active); in [13], 4.9 µM (active).
Regarding `COc1cccc(NC(=O)N2[C@@H](CO)[C@@H](c3ccccc3)[C@@H]2CNCC(C)C)c1`, the AC50 is 1.05 µM (active) in test [1]; 1.78 µM (active) in test [2]; 1.4 µM (active) in test [3]; 1.08 µM (active) in [4]; 67.9 µM (active) in test [5].
Regarding `Cc1ccccc1-c1ccc2c(c1)O[C@H](CN(C)C(=O)Nc1ccc(C(F)(F)F)cc1)[C@@H](C)CN([C@H](C)CO)S2(=O)=O`, the half-maximal activity concentration (AC50) in [15] was 41.1 µM (active); in test [8] it was 8 µM (active); in test [9], > 70 µM (inactive).
For the compound `COc1ccc(-c2cc(C#N)nc(Cl)n2)cc1`, the half-maximal activity concentration (AC50) in [16] was 79.8 µM (active). Besides, the results for the EC50 in test [6], in [17] and in test [7] were > 91.2 µM (inactive), 37.2 µM (active) and > 91.2 µM (inactive), respectively.
Regarding `O=C(Nc1cccc(-n2cnnn2)c1)c1cc2ccccc2o1`, the figures for the IC50 in test [11] and in test [13] were 6.55 µM (active) and 5.91 µM (active), respectively.
Turning to `O=S(=O)(c1ccc(OCC(O)CN2CCN(c3ccccc3O)CC2)cc1)N1CCOCC1` (centres undefined), the figures for the EC50 in test [18] and in test [19] were 92.5 µM (inactive) and 76.1 µM (inactive), respectively.
On to `CC(=O)c1cccc(OCC(O)CN2CC=C(c3ccccc3)CC2)c1` (centres undefined), for which the EC50 in [18] is 92.5 µM (inactive); in [19], 0.0752 µM (active).
